In US20140329872A1, “TREATMENT OF HYPERTENSION AND/OR PREVENTION OR TREATMENT OF HEART FAILURE IN A MAMMAL RECEIVING ANTI-COAGULANT THERAPY” (NOVARTIS AG, priority 2010, published 2014):
Where two headings read alike, the source gives them in different places.

How the values were obtained:
[1] = test system: extrinsic pathway of coagulation
Source text: The prothrombin time (PT) and its derived measures of prothrombin ratio (PR) and international normalized ratio (INR) are measures of the extrinsic pathway of coagulation. […] The prothrombin time is the time it takes blood plasma to clot after addition of tissue factor (obtained from animals). The result (in seconds) of the prothrombin time performed in a normal individual will vary depending the analytical system and method used. This is due to differences between different batches of manufacturer's tissue factor used to perform the test.
The international normalized ratio (INR) was devised to standardize the results. The INR is the ratio of a patient's prothrombin time (PT) to a normal (control) sample, raised to the power of the International Sensitivity Index (ISI) value for the analytical system used.

[2] = for AUCinf, adjusted geometric mean / AUClast, adjusted geometric mean / Cmax, adjusted geometric mean: healthy subjects, N=25; for pharmacokinetic interaction with LCZ696 (steady-state concentration-time profiles): in the presence and absence of LCZ696, FIG. 1a, 1b
Source text: This study employs a single blind, randomized, two-period, crossover design. All subjects are blinded to the treatment to eliminate study bias. Each subject participates in a screening period, two baseline periods, and two treatment periods. A washout period of at least 10 days but not more than 14 days separates each treatment period.
This study employs a single blind, randomized, two-period, crossover design. Twenty six healthy male and female subjects are enrolled to ensure at least 20 completers. Each subject participates in a screening period (day-21 to day-2), two baseline periods (day-1), two treatment periods, a washout period of at least 10 days separating the treatment periods, and a study completion evaluation. Subjects undergo routine safety testing during screening, including physical, routine hematology, biochemistry, urinalysis, viral serology screening, pregnancy testing (female subjects), urine drug screening, alcohol screening, standard 12-lead electrocardiogram (ECG), and vital signs assessments to establish eligibility.
Subjects are randomized into the following two treatment sequences during treatment Period 1 and Period 2 as shown.
Treatment Period 1: Those subjects who successfully pass screening (Days-21 to -2) report to the study center in the morning of the day prior to the initial dosing (Day-1) for admission into the study center, at which time they undergo baseline safety evaluations as conducted during screening (except viral serology). All baseline safety evaluation results should be available prior to first dosing. Subjects are domiciled for at least 11 days during each treatment period.
Serial samples for drug/placebo pharmacokinetics are collected on Day 4 for up to 12 hours post morning dose.
In the evening prior to each of full pharmacokinetic (PK) assessment days (Day 4 & day 5) the subjects fast overnight (10-12 hours) prior to dosing, and continue to fast until 4 hours post-dose. On Day 1, 2, 3, 6, 7, 8, 9, and 10 the subjects are dosed following an overnight fast of 10-12 hours and receive breakfast 30 minutes post-dose, and evening snacks are provided 30 minutes after evening dosing on all dosing days.
Treatment Period 2: Subjects are required to return to the study center following a washout period of at least 10 days for period 2 baseline evaluation (Day-1). All study related activities including pharmacokinetic sampling for all treatments follow the same schedule as in Period 1.

[3] = healthy subjects, Warfarin 25 mg single dose with LCZ696 200 mg b.i.d. or with placebo, N=25
[4] = LCZ696 200 mg b.i.d. + Warfarin 25 mg single dose on Day 5
[5] = Placebo + Warfarin 25 mg single dose on Day 5

| Compound | Mean INR (AUCINR/144), geometric mean [1, 3] | Mean Prothrombin time (AUCPT/144), geometric mean [1, 3] | Peak INR, geometric mean [1, 3] | Peak prothrombin time, geometric mean [1, 3] | interaction with LCZ696 as indicated by the INR ([1]; warfarin (racemic) administration, FIG. 3) | interaction with LCZ696 as indicated by prothrombin times ([1]; warfarin (racemic) in the presence and absence (placebo) of LCZ696, FIG. 2) | AUCinf, adjusted geometric mean [2, 4] | AUClast, adjusted geometric mean [2, 4] | Cmax, adjusted geometric mean [2, 4] | AUCinf, adjusted geometric mean [2, 5] | AUClast, adjusted geometric mean [2, 5] | Cmax, adjusted geometric mean [2, 5] | pharmacokinetic interaction with LCZ696 (steady-state concentration-time profiles) [2] |
| --- | --- | --- | --- | --- | --- | --- | --- | --- | --- | --- | --- | --- | --- |
| CC(=O)CC(c1ccccc1)c1c(O)c2ccccc2oc1=O (racemic) [Warfarin, (RS)-4-hydroxy-3-(3-oxo-1-phenylbutyl)-2H-chromen-2-one] | 1.30 | 16.51 s | 1.90 | 22.00 s | lack of interaction | lack of interaction | – | – | – | – | – | – | – |
| CC(=O)C[C@H](c1ccccc1)c1c(O)c2ccccc2oc1=O [R-Warfarin] | – | – | – | – | – | – | 64891.96 ng·h/mL | 58796.87 ng·h/mL | 1325.29 ng/mL | 66153.48 ng·h/mL | 59534.11 ng·h/mL | 1373.71 ng/mL | lack of pharmacokinetic interaction |
| CC(=O)C[C@@H](c1ccccc1)c1c(O)c2ccccc2oc1=O [S-Warfarin] | – | – | – | – | – | – | 50677.20 ng·h/mL | 46647.81 ng·h/mL | 1344.45 ng/mL | 52027.31 ng·h/mL | 47570.37 ng·h/mL | 1414.20 ng/mL | lack of pharmacokinetic interaction |
